{"source": "patent US7365055B2", "about": "“Derivatives of morphine-6-glucuronide, pharmaceutical compositions containing them, their preparation method and their uses” (BTG International Limited, priority 2003, dated 2008)", "key": {"opioid receptors": {"tested_on": "opioid receptors", "conditions": "background statement; cited from earlier work"}, "μ receptors": {"target": "T1, μ receptors (Rattus norvegicus, UniProt P33535)", "T1 construct": "homogenates of rat cerebral cortex membrane; from tissue; host or cells: rat cerebral cortex membrane homogenate", "T1 sequence (P33535 whole entry)": "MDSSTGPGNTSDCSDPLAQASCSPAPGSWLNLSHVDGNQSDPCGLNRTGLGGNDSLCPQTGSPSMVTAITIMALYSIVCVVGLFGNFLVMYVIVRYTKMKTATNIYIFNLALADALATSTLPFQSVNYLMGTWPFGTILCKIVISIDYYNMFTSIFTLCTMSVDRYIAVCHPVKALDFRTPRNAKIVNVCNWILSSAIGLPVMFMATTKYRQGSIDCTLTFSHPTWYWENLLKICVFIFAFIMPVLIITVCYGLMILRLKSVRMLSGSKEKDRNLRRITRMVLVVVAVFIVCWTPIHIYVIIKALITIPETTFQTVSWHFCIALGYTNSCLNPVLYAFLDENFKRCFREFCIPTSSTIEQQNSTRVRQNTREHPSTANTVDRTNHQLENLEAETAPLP", "assay": "affinity to the μ receptors, [3H]DAMGO binding, rat cerebral cortex membrane homogenates", "description": "(§1) The affinity of M6G and of morphine was compared to that of the M6G derivatives according to the invention for the opioid receptors μ (mu) and κ (kappa).\n(§2) The non-specific binding was determined by means of the addition to the labelled ligands of naloxone 10 μM.\n(§3) After incubation, the samples were filtered on glass fibres (GF/B, Packard) previously incubated with 0.3% polyethyleneimine and rinsed several times with 50 mM of cold Tris-HCl using a “96-sample cell harvester” (Unifilter, Packard). The filters were then dried and the radioactivity counted."}, "κ receptors": {"target": "T2, κ receptors (Cavia porcellus, UniProt P41144)", "T2 construct": "homogenates of guinea-pig cerebellum membrane; from tissue; host or cells: guinea-pig cerebellum membrane homogenate", "T2 sequence (P41144 whole entry)": "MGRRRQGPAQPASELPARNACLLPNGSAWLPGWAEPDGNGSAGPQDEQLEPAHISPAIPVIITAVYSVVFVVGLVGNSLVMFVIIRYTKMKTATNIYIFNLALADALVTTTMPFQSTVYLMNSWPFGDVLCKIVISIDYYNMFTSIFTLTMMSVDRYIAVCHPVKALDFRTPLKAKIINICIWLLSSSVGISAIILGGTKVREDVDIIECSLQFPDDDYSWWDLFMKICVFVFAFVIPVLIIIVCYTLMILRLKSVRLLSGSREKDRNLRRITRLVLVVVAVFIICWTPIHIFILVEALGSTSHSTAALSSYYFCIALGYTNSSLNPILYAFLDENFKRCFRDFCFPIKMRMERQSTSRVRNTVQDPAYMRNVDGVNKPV", "assay": "affinity to the κ receptors, [3H]U 69593 binding, guinea-pig cerebellum membrane homogenates", "conditions": "0.7 nM [3H]U 69593, 80 minutes at 22° C.", "description": "as §1\nConcentrations of M6G, morphine and the compound according to the invention of 10^−14 to 10^−6 M were used.\nas §2, §3"}, "mouse": {"tested_on": "mouse", "assay": "tail flick test (analgesic effect)", "assay_type": "in vivo", "conditions": "mice, intravenous route"}, "[1]": {"conditions": "Affinity to the K receptors (Ki)"}}, "note": "Where two headings read alike, the source gives them in different places.", "data": [{"compound": "CN1CC[C@]23c4c5ccc(O[C@@H]6O[C@H](C(=O)O)[C@@H](O)[C@H](O)[C@H]6O)c4O[C@H]2[C@@H](O)C=C[C@H]3[C@H]1C5", "note": "[Example M3G, morphine-3-glucuronide]", "values": [{"measurement": "affinity for the opioid receptors", "setting": "opioid receptors", "value": "no affinity"}]}, {"compound": "CN1CCC23c4c5ccc(O)c4OC2C(OC2OC(C(=O)O)C(O)C(O)C2O)C=CC3C1C5", "note": "(stereo not drawn) [Example M6G, morphine-6-glucuronide]", "values": [{"measurement": "Ki", "setting": "μ receptors", "value": 13.6, "unit": "nM"}, {"measurement": "Ki", "setting": "κ receptors; [1]", "value": 224, "unit": "nM"}, {"measurement": "affinity for the opioid receptors", "setting": "opioid receptors", "value": "high affinity"}, {"measurement": "ED50, the dose which induces 50% of the analgesic effect", "setting": "mouse", "value": 0.55, "unit": "mg eq./kg"}, {"measurement": "duration of the action (analgesic activity)", "setting": "mouse", "value": "approximately 100 minutes"}]}, {"compound": "CCN(CC)C(=O)C(CS)NC(=O)C1OC(OC2C=CC3C4Cc5ccc(O)c6c5C3(CCN4C)C2O6)C(O)C(O)C1O", "note": "(stereo not drawn) [Example M6G-Cys-DEA, M6G-Cys-DEA]", "values": [{"measurement": "Ki", "setting": "μ receptors", "value": 0.36, "unit": "nM"}, {"measurement": "Ki", "setting": "κ receptors; [1]", "value": 1.9, "unit": "nM"}]}, {"compound": "CCOC(=O)C(CS)NC(=O)C1OC(OC2C=CC3C4Cc5ccc(O)c6c5C3(CCN4C)C2O6)C(O)C(O)C1O", "note": "(stereo not drawn) [Example M6G-Cys-OEt, M6G-Cys-OEt]", "values": [{"measurement": "Ki", "setting": "μ receptors", "value": 1.17, "unit": "nM"}, {"measurement": "Ki", "setting": "κ receptors; [1]", "value": 11.2, "unit": "nM"}]}, {"compound": "COC(=O)C(CS)NC(=O)C1OC(OC2C=CC3C4Cc5ccc(O)c6c5C3(CCN4C)C2O6)C(O)C(O)C1O", "note": "(stereo not drawn) [Example M6G-Cys-OMe, M6G-Cys-OMe]", "values": [{"measurement": "Ki", "setting": "μ receptors", "value": 1.04, "unit": "nM"}, {"measurement": "Ki", "setting": "κ receptors; [1]", "value": 14, "unit": "nM"}]}, {"compound": "CN1CC[C@]23c4c5ccc(O)c4O[C@H]2[C@@H](O[C@@H]2O[C@H](C(=O)NCCSSCCNC(=O)[C@H]4O[C@@H](O[C@H]6C=CC7[C@H]8Cc9ccc(O)c%10c9[C@@]7(CCN8C)[C@H]6O%10)[C@H](O)[C@@H](O)[C@@H]4O)[C@@H](O)[C@H](O)[C@H]2O)C=CC3[C@H]1C5", "note": "(stereo partly drawn) [M6G-Cya-Cya-M6G]", "values": [{"measurement": "Ki", "setting": "μ receptors", "value": 0.38, "unit": "nM"}, {"measurement": "Ki", "setting": "κ receptors; [1]", "value": 6.22, "unit": "nM"}, {"measurement": "duration of the action (analgesic activity)", "setting": "mouse", "value": 360, "unit": "min"}]}, {"compound": "CN1CC[C@]23c4c5ccc(O)c4O[C@H]2[C@@H](O[C@@H]2OC(C(=O)NCCS)[C@@H](O)C(O)C2O)C=CC3[C@H]1C5", "note": "(stereo partly drawn) [M6G-cysteamide]", "values": [{"measurement": "Ki", "setting": "μ receptors", "value": 2.35, "unit": "nM"}, {"measurement": "Ki", "setting": "κ receptors; [1]", "value": 4.49, "unit": "nM"}]}, {"compound": "CN1CC[C@]23c4c5ccc(O)c4O[C@H]2[C@@H](O)C=C[C@H]3[C@H]1C5", "note": "[Morphine]", "values": [{"measurement": "ED50, the dose which induces 50% of the analgesic effect", "setting": "mouse", "value": 2.65, "unit": "mg eq./kg"}, {"measurement": "duration of the action (analgesic activity)", "setting": "mouse", "value": "approximately 100 minutes"}]}, {"compound": "M6G-Cya-Cya-PEG20000 [M6G-Cya-Cya-PEG200000]", "values": [{"measurement": "Ki", "setting": "μ receptors; rat cerebral cortex membrane, 1 nM [3H]DAMGO, 60 minutes at 22° C., read-out: Affinity to the μ receptors (Ki)", "value": 0.92, "unit": "nM"}, {"measurement": "Ki", "setting": "κ receptors; read-out: Affinity to the K receptors (Ki)", "value": 0.72, "unit": "nM"}]}]}
